In patent US10294202B2, “Pyrrolidinones as herbicides” (FMC Corporation, priority 2013, dated 2019):

Columns and labels:
[1] = tested on: wheat (winter wheat); assay: Test C pre-/postemergence herbicide test; format: in vivo, Triticum aestivum; conditions: Preemergence; for Plant response rating (scale of 0 to 100), Wheat: 250 g ai/ha
From the text: (§1) Seeds of plant species selected from blackgrass (Alopecurus myosuroides), ryegrass, Italian (Italian ryegrass, Lolium multiflorum), wheat (winter wheat, Triticum aestivum), galium (catchweed bedstraw, Galium aparine), corn (Zea mays), crabgrass, large (large crabgrass, Digitaria sanguinalis), foxtail, giant (giant foxtail, Setaria faberii), johnsongrass (Sorghum halepense), lambsquarters (Chenopodium album), morningglory (Ipomoea coccinea), nutsedge, yellow (yellow nutsedge, Cyperus esculentus), pigweed (Amaranthus retroflexus), ragweed (common ragweed, Ambrosia elatior), soybean (Glycine max), barnyardgrass (Echinochloa crus-galli), oilseed rape (Brassica napus), waterhemp (common waterhemp, Amaranthus rudis), kochia (Kochia scoparia), oat, wild (wild oat, Avena fatua), surinam grass (Brachiaria decumbens), foxtail, green (green foxtail, Setaria viridis), goosegrass (Eleusine indica), bromegrass, downy (downy bromegrass, Bromus tectorum), nightshade (eastern black nightshade, Solanum ptycanthum), cocklebur (common cocklebur, Xanthium strumarium), cupgrass, woolly (woolly cupgrass, Eriochloa villosa), bermudagrass (Cynodon dactylon), sunflower, (common oilseed sunflower, Helianthus annuus), Russian thistle (Salsola kali) and velvetleaf (Abutilon theophrasti) were planted into a blend of loam soil and sand and treated preemergence with test chemicals formulated in a non-phytotoxic solvent mixture which included a surfactant. At the same time, plants selected from these crop and weed species and also barley (winter barley, Hordeum vulgare), […]), chickweed (common chickweed, Stellaria media), deadnettle (henbit deadnettle, Lamium amplexicaule), and canarygrass (littleseed canarygrass, Phalaris minor) were planted in pots containing Redi-Earth® planting medium (Scotts Company, 14111 Scottslawn Road, Marysville, Ohio 43041) comprising spaghnum peat moss, vermiculite, wetting agent and starter nutrients and treated with postemergence applications of test chemicals formulated in the same manner. Plants ranged in height from 2 to 18 cm (1- to 4-leaf stage) for postemergence treatments. Treated plants and controls were maintained in a greenhouse for 13 to 15 days, after which time all species were compared to controls and visually evaluated. Plant response ratings, summarized in Table C, are based on a scale of 0 to 100 where 0 is no effect and 100 is complete control. A dash (-) response means no test result.

[2] = tested on: crabgrass, large; assay: Test C pre-/postemergence herbicide test; format: in vivo, Digitaria sanguinalis; conditions: Preemergence; for Plant response rating (scale of 0 to 100), Crabgrass, Large: 250 g ai/ha
From the text: as §1

[3] = tested on: pigweed; assay: Test C pre-/postemergence herbicide test; format: in vivo, Amaranthus retroflexus; conditions: Preemergence; for Plant response rating (scale of 0 to 100), Pigweed: 250 g ai/ha
From the text: as §1

[4] = tested on: ragweed; assay: Test A pre-/postemergence herbicide test; format: in vivo, Ambrosia elatior
How it was run: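 Visual injury ratings, 0 = no effect, 100 = complete control, taken ~10 days after treatment against untreated greenhouse controls. Preemergence: directed soil spray onto seeded loam/sand pots. Postemergence: spray onto plants at one- to two-leaf stage, 2–10 cm tall.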

[5] = tested on: lambsquarters; assay: Test C pre-/postemergence herbicide test; format: in vivo, Chenopodium album; conditions: Preemergence; for Plant response rating (scale of 0 to 100), Lambsquarters: 250 g ai/ha
From the text: as §1

[6] = tested on: velvetleaf; assay: Test C pre-/postemergence herbicide test; format: in vivo, Abutilon theophrasti; conditions: Preemergence; for Plant response rating (scale of 0 to 100), Velvetleaf: 250 g ai/ha
From the text: as §1

[7] = 31 g ai/ha, scale 0 to 100, 0 is no effect and 100 is complete control
[8] = 62 g ai/ha, scale 0 to 100 (0 no effect, 100 complete control)
[9] = 125 g ai/ha, scale 0 to 100 (0 no effect, 100 complete control)
[10] = Postemergence, 125 g ai/ha, visual rating on 0 to 100 scale (0 no effect, 100 complete control), approx. 10 days
[11] = Preemergence, 125 g ai/ha, 0 to 100 scale where 0 is no effect and 100 is complete control
[12] = preemergence, 500 g ai/ha, 0 to 100 scale, 0 is no effect and 100 is complete control
[13] = 125 g ai/ha, visual rating, 0 to 100 scale, 0 no effect, 100 complete control, approximately 10 days, preemergence
[14] = Postemergence, 125 g ai/ha, 0 to 100 scale, 0 is no effect, 100 is complete control

SMILES | Wheat plant response rating [1, 7] | Wheat plant response rating [1, 8] | Plant response rating (scale of 0 to 100), Wheat [1] | Crabgrass, Large plant response rating [2, 7] | Crabgrass, Large plant response rating [2, 8] | Plant response rating, Crabgrass, Large [2, 9] | Plant response rating (scale of 0 to 100), Crabgrass, Large [2] | Pigweed plant response rating [3, 7] | Pigweed plant response rating [3, 8] | Plant response rating, Pigweed [3, 9] | Plant response rating (scale of 0 to 100), Pigweed [3] | Plant response rating, Ragweed [4, 12] | Lambsquarters plant response rating [5, 7] | Lambsquarters plant response rating [5, 8] | Plant response rating, Lambsquarters [5, 9] | Plant response rating (scale of 0 to 100), Lambsquarters [5] | Velvetleaf plant response rating [6, 7] | Velvetleaf plant response rating [6, 8] | Plant response rating, Velvetleaf [6, 9] | Plant response rating (scale of 0 to 100), Velvetleaf [6] | further results
O=C1NCC(c2cc(F)cc(F)c2)C1C(=O)Nc1ccccc1Cl (racemic) [Compound 280] | 0 | 0 | 0 | 85 | 90 | 95 | 100 | 10 | 0 | 20 | 20 | 0 | 0 | 0 | 10 | 10 | 0 | 0 | 0 | 10 | Plant response rating, Ragweed [4, 10]: 0; Plant response rating, Ragweed ([4]; Postemergence, 500 g ai/ha, 0 to 100 scale (0 no effect, 100 complete control)): 0; Plant response rating, Ragweed [4, 11]: 0
O=C1NCC(c2ccc(OC(F)F)cc2)C1C(=O)Nc1cccc(F)c1F (racemic) [Compound 350] | – | 0 | – | – | 90 | – | 90 | – | 10 | – | – | – | – | 90 | – | 90 | – | 0 | – | – | Plant response rating, Wheat ([1]; 125 g ai/ha, scale 0 to 100): 0; Plant response rating, Wheat ([1]; 31 g ai/ha, scale 0 to 100): 0; Plant response rating, Crabgrass, Large ([2]; 125 g ai/ha, scale 0 to 100): 90; Plant response rating, Crabgrass, Large ([2]; 31 g ai/ha, scale 0 to 100): 90; Plant response rating, Pigweed ([3]; 125 g ai/ha, scale 0 to 100): 80; Plant response rating, Pigweed ([3]; 31 g ai/ha, scale 0 to 100): 0; Plant response rating, Ragweed [4, 10]: 0; Plant response rating, Ragweed [4, 11]: 30; Ragweed plant response rating ([4]; Preemergence, 500 g ai/ha, visual rating on 0 to 100 scale (0 no effect, 100 complete control)): 30; Plant response rating, Lambsquarters ([5]; 125 g ai/ha, scale 0 to 100): 90; Plant response rating, Velvetleaf ([6]; 125 g ai/ha, scale 0 to 100): 0; Plant response rating, Velvetleaf ([6]; 31 g ai/ha, scale 0 to 100): 0
O=C1NCC(c2cccc(OC(F)(F)F)c2)C1C(=O)Nc1ccccc1F (centres unmarked) [Compound 69] | 0 | – | 5 | 90 | – | 95 | 95 | 15 | – | 25 | 25 | – | 35 | – | 65 | 85 | 30 | – | 30 | 30 | Plant response rating, Wheat ([1]; 62 g ai/ha, scale 0 to 100): 0; Plant response rating, Wheat [1, 9]: 5; Plant response rating, Crabgrass, Large ([2]; 62 g ai/ha, scale 0 to 100): 90; Plant response rating, Pigweed ([3]; 62 g ai/ha, scale 0 to 100): 25; Plant response rating, Lambsquarters ([5]; 62 g ai/ha, scale 0 to 100): 35; Plant response rating, Velvetleaf ([6]; 62 g ai/ha, scale 0 to 100): 30
O=C1NCC(c2ccc(Cl)cc2)C1C(=O)Nc1cccc(F)c1F (centres unmarked) [Compound 218] | 0 | 0 | 10 | 90 | 90 | 100 | 100 | 5 | 50 | 75 | 85 | 50 | 10 | 40 | 75 | 85 | 0 | 0 | 15 | 40 | Plant response rating, Wheat [1, 9]: 0; Plant response rating, Ragweed [4, 13]: 0; Plant response rating, Ragweed [4, 14]: 0; Ragweed plant response rating (0 to 100 scale, 0 is no effect, 100 is complete control) ([4]; Postemergence, 500 g ai/ha): 50
O=C1NCC(c2ccc(C(F)(F)F)cc2)C1C(=O)Nc1ccccc1F (centres unmarked) [Compound 231] | 0 | 15 | 80 | 90 | 95 | 100 | 100 | 35 | 70 | 85 | 90 | 90 | 40 | 85 | 85 | 100 | 10 | 25 | 35 | 60 | Plant response rating, Wheat [1, 9]: 20; Plant response rating, Ragweed [4, 13]: 70; Plant response rating, Ragweed [4, 14]: 20; Ragweed plant response rating (0 to 100 scale, 0 is no effect, 100 is complete control) ([4]; Postemergence, 500 g ai/ha): 50
